Source: the NIST ThermoML archive (doi:10.1021/je700260f)
± gives the expanded uncertainty stated by the source.

Conditions: 283.15 K, Liquid, Vibrating tube method

FC(C(F)(F)F)C(F)(F)F [1,1,1,2,3,3,3-heptafluoropropane]
Conditions | mass density [kg/m3]
10458 kPa | 1500.1 ± 1.6
10488 kPa | 1500.2 ± 1.6
10528 kPa | 1500.3 ± 1.6
10559 kPa | 1500.4 ± 1.6
10588 kPa | 1500.6 ± 1.6
10774 kPa | 1501.4 ± 1.6
10816 kPa | 1501.5 ± 1.6
10838 kPa | 1501.7 ± 1.6
10868 kPa | 1501.8 ± 1.6
10899 kPa | 1502 ± 1.6
10925 kPa | 1502.1 ± 1.6
10959 kPa | 1502.2 ± 1.6
10981 kPa | 1502.4 ± 1.6
11024 kPa | 1502.5 ± 1.6
11055 kPa | 1502.6 ± 1.6
12114 kPa | 1507 ± 1.6
12149 kPa | 1507.1 ± 1.6
12177 kPa | 1507.2 ± 1.6
12214 kPa | 1507.4 ± 1.6
12245 kPa | 1507.6 ± 1.6
12281 kPa | 1507.6 ± 1.6
12311 kPa | 1507.7 ± 1.6
12342 kPa | 1507.9 ± 1.6
12373 kPa | 1508 ± 1.6
12405 kPa | 1508.2 ± 1.6
12437 kPa | 1508.3 ± 1.6
12476 kPa | 1508.3 ± 1.6
12508 kPa | 1508.5 ± 1.6
12544 kPa | 1508.6 ± 1.6
12576 kPa | 1508.7 ± 1.6
12608 kPa | 1509 ± 1.6
12641 kPa | 1509.1 ± 1.6
12677 kPa | 1509.2 ± 1.6
12709 kPa | 1509.4 ± 1.6
12748 kPa | 1509.5 ± 1.6
12780 kPa | 1509.7 ± 1.6
13258 kPa | 1511.5 ± 1.6
13353 kPa | 1512 ± 1.6
14612 kPa | 1516.6 ± 1.6
14643 kPa | 1516.8 ± 1.6
14673 kPa | 1516.9 ± 1.6
14713 kPa | 1517.2 ± 1.6
14739 kPa | 1517.4 ± 1.6
14769 kPa | 1517.4 ± 1.6
14799 kPa | 1517.6 ± 1.6
14834 kPa | 1517.7 ± 1.6
14886 kPa | 1517.8 ± 1.6
14927 kPa | 1517.9 ± 1.6
14957 kPa | 1518.1 ± 1.6
14998 kPa | 1518.3 ± 1.6
15045 kPa | 1518.4 ± 1.6
15086 kPa | 1518.5 ± 1.6
15117 kPa | 1518.8 ± 1.6
15153 kPa | 1518.8 ± 1.6
15184 kPa | 1518.9 ± 1.6
15215 kPa | 1519.2 ± 1.6
15256 kPa | 1519.2 ± 1.6
15287 kPa | 1519.4 ± 1.6
15328 kPa | 1519.4 ± 1.6
15365 kPa | 1519.5 ± 1.6
15400 kPa | 1519.8 ± 1.6
15442 kPa | 1519.9 ± 1.6
15474 kPa | 1520 ± 1.6
15505 kPa | 1520 ± 1.6
15536 kPa | 1520.4 ± 1.6
15572 kPa | 1520.5 ± 1.6
15607 kPa | 1520.5 ± 1.6
15643 kPa | 1520.7 ± 1.6
15673 kPa | 1520.8 ± 1.6
15714 kPa | 1521 ± 1.6
16087 kPa | 1522.4 ± 1.6
16114 kPa | 1522.4 ± 1.6
16151 kPa | 1522.5 ± 1.6
16175 kPa | 1522.7 ± 1.6
16606 kPa | 1524.3 ± 1.6
16678 kPa | 1524.6 ± 1.6
16711 kPa | 1524.5 ± 1.6
17447 kPa | 1527.3 ± 1.6
17481 kPa | 1527.3 ± 1.6
17515 kPa | 1527.4 ± 1.6
17545 kPa | 1527.7 ± 1.6
17593 kPa | 1527.7 ± 1.6
18341 kPa | 1530.5 ± 1.6
18418 kPa | 1530.6 ± 1.6
18457 kPa | 1530.8 ± 1.6
18487 kPa | 1530.8 ± 1.6
18526 kPa | 1531.1 ± 1.6
18571 kPa | 1531.1 ± 1.6
19435 kPa | 1534.2 ± 1.6
19479 kPa | 1534.3 ± 1.6
19508 kPa | 1534.3 ± 1.6
19536 kPa | 1534.5 ± 1.6
19574 kPa | 1534.6 ± 1.6
19602 kPa | 1534.7 ± 1.6
19640 kPa | 1534.9 ± 1.6
19673 kPa | 1535 ± 1.6
19706 kPa | 1535.1 ± 1.6
19739 kPa | 1535.3 ± 1.6
19785 kPa | 1535.4 ± 1.6
19809 kPa | 1535.4 ± 1.6
19854 kPa | 1535.6 ± 1.6
19878 kPa | 1535.6 ± 1.6
19911 kPa | 1535.8 ± 1.6
19949 kPa | 1535.8 ± 1.6
19977 kPa | 1536.1 ± 1.6
20004 kPa | 1536 ± 1.6
20033 kPa | 1536.1 ± 1.6
20218 kPa | 1536.8 ± 1.6
20257 kPa | 1536.9 ± 1.6
20300 kPa | 1537.1 ± 1.6
20333 kPa | 1537.1 ± 1.6
20396 kPa | 1537.4 ± 1.6
20492 kPa | 1537.8 ± 1.6
20536 kPa | 1538 ± 1.6
20566 kPa | 1538 ± 1.6
20605 kPa | 1538.1 ± 1.6
20635 kPa | 1538.2 ± 1.6
20671 kPa | 1538.4 ± 1.6
20709 kPa | 1538.4 ± 1.6
20746 kPa | 1538.6 ± 1.6
20776 kPa | 1538.6 ± 1.6
20810 kPa | 1538.7 ± 1.6
20840 kPa | 1538.9 ± 1.6
20879 kPa | 1539.1 ± 1.7
20918 kPa | 1539.3 ± 1.7
20961 kPa | 1539.3 ± 1.7
20991 kPa | 1539.4 ± 1.7
21029 kPa | 1539.6 ± 1.7
21058 kPa | 1539.4 ± 1.7
21099 kPa | 1539.7 ± 1.7
21129 kPa | 1539.8 ± 1.7
21172 kPa | 1539.9 ± 1.7
21208 kPa | 1540.1 ± 1.7
21242 kPa | 1540.3 ± 1.7
21281 kPa | 1540.4 ± 1.7
21310 kPa | 1540.4 ± 1.7
21350 kPa | 1540.7 ± 1.7
21418 kPa | 1540.9 ± 1.7
21453 kPa | 1540.9 ± 1.7
21503 kPa | 1541.2 ± 1.7
21541 kPa | 1541.2 ± 1.7
21571 kPa | 1541.3 ± 1.7
21610 kPa | 1541.4 ± 1.7
21645 kPa | 1541.5 ± 1.7
21684 kPa | 1541.6 ± 1.7
21709 kPa | 1541.6 ± 1.7
21753 kPa | 1541.9 ± 1.7
21784 kPa | 1542 ± 1.7
21834 kPa | 1542.2 ± 1.7
21870 kPa | 1542.3 ± 1.7
21901 kPa | 1542.3 ± 1.7
21936 kPa | 1542.5 ± 1.7
21972 kPa | 1542.7 ± 1.7
22011 kPa | 1542.7 ± 1.7
22041 kPa | 1542.8 ± 1.7
22080 kPa | 1543.1 ± 1.7
22115 kPa | 1543.2 ± 1.7
22145 kPa | 1543.2 ± 1.7
22190 kPa | 1543.1 ± 1.7
22231 kPa | 1543.5 ± 1.7
22261 kPa | 1543.6 ± 1.7
22302 kPa | 1543.7 ± 1.7
22349 kPa | 1543.9 ± 1.7
22379 kPa | 1543.9 ± 1.7
22424 kPa | 1544 ± 1.7
22459 kPa | 1544.1 ± 1.7
22539 kPa | 1544.5 ± 1.7
22579 kPa | 1544.6 ± 1.7
22710 kPa | 1545.1 ± 1.7
22747 kPa | 1545.1 ± 1.7
22782 kPa | 1545.2 ± 1.7
22829 kPa | 1545.3 ± 1.7
22864 kPa | 1545.6 ± 1.7
22974 kPa | 1545.8 ± 1.7
23050 kPa | 1545.9 ± 1.7
23131 kPa | 1546.2 ± 1.7
23178 kPa | 1546.5 ± 1.7
23230 kPa | 1546.7 ± 1.7
23275 kPa | 1546.8 ± 1.7
23311 kPa | 1546.9 ± 1.7
23342 kPa | 1546.9 ± 1.7
23378 kPa | 1547.1 ± 1.7
23418 kPa | 1547.2 ± 1.7
23678 kPa | 1548 ± 1.7
23750 kPa | 1548.3 ± 1.7
23792 kPa | 1548.5 ± 1.7
24059 kPa | 1549.2 ± 1.7
24099 kPa | 1549.4 ± 1.7
24146 kPa | 1549.5 ± 1.7
24192 kPa | 1549.5 ± 1.7
24228 kPa | 1549.8 ± 1.7
24269 kPa | 1549.9 ± 1.7
24309 kPa | 1550.1 ± 1.7
24608 kPa | 1550.8 ± 1.7
24649 kPa | 1551 ± 1.7
24695 kPa | 1551.2 ± 1.7
24731 kPa | 1551.2 ± 1.7
24761 kPa | 1551.4 ± 1.7
24807 kPa | 1551.5 ± 1.7
24838 kPa | 1551.8 ± 1.7
24869 kPa | 1551.8 ± 1.7
24920 kPa | 1551.9 ± 1.7
24950 kPa | 1552 ± 1.7
24990 kPa | 1552.1 ± 1.7
25031 kPa | 1552.2 ± 1.7
